Experimental data reported in PubChem BioAssay (NCI).
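How tested: cells in 96-well plates exposed to compound for 48 hours at five concentrations. Abbreviation: GI50, concentration required for 50% inhibition of growth. TGI denotes the concentration required for complete inhibition of growth.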

Legend:
Test in all cases: NCI tumour cell line growth inhibition, 48 h
ACHN renal = test system: ACHN renal
MALME-3M melanoma = test system: MALME-3M melanoma
NCI/ADR-RES ovarian = test system: NCI/ADR-RES ovarian
HOP-62 NSCLC = test system: HOP-62 NSCLC
SN12C renal = test system: SN12C renal
U251 CNS = test system: U251 CNS
SNB-75 CNS = test system: SNB-75 CNS
MDA-MB-231 breast = test system: MDA-MB-231 breast
UO-31 renal = test system: UO-31 renal
COLO 205 colon = test system: COLO 205 colon
HL-60(TB) leukemia = test system: HL-60(TB) leukemia
HCC-2998 colon = test system: HCC-2998 colon
T-47D breast = test system: T-47D breast
M14 melanoma = test system: M14 melanoma
SW-620 colon = test system: SW-620 colon
NCI-H23 lung = test system: NCI-H23 lung
SF-295 CNS = test system: SF-295 CNS
CAKI-1 renal = test system: CAKI-1 renal
EKVX NSCLC = test system: EKVX NSCLC
OVCAR-3 ovarian = test system: OVCAR-3 ovarian
LOX IMVI melanoma = test system: LOX IMVI melanoma
NCI-H460 lung = test system: NCI-H460 lung
786-0 renal = test system: 786-0 renal
RXF 393 renal = test system: RXF 393 renal
NCI-H522 lung = test system: NCI-H522 lung
MCF7 breast = test system: MCF7 breast
A498 renal = test system: A498 renal
RPMI-8226 leukemia = test system: RPMI-8226 leukemia
OVCAR-8 ovarian = test system: OVCAR-8 ovarian
HCT-116 colon = test system: HCT-116 colon
HCT-15 colon = test system: HCT-15 colon
PC-3 prostate = test system: PC-3 prostate
OVCAR-4 ovarian = test system: OVCAR-4 ovarian
SF-539 CNS = test system: SF-539 CNS
NCI-H226 lung = test system: NCI-H226 lung
TK-10 renal = test system: TK-10 renal
SK-OV-3 ovarian = test system: SK-OV-3 ovarian
OVCAR-5 ovarian = test system: OVCAR-5 ovarian
MDA-MB-435 = test system: MDA-MB-435
SK-MEL-5 melanoma = test system: SK-MEL-5 melanoma
UACC-257 melanoma = test system: UACC-257 melanoma
KM12 colon = test system: KM12 colon
HOP-92 NSCLC = test system: HOP-92 NSCLC
CCRF-CEM leukemia = test system: CCRF-CEM leukemia
UACC-62 melanoma = test system: UACC-62 melanoma
SNB-19 CNS = test system: SNB-19 CNS
SF-268 CNS = test system: SF-268 CNS
SK-MEL-2 melanoma = test system: SK-MEL-2 melanoma
SK-MEL-28 melanoma = test system: SK-MEL-28 melanoma
MDA-MB-468 breast = test system: MDA-MB-468 breast
IGROV1 ovarian = test system: IGROV1 ovarian
DU-145 prostate = test system: DU-145 prostate
HS 578T breast = test system: HS 578T breast
A549 NSCLC = test system: A549 NSCLC
HT29 colon = test system: HT29 colon
BT-549 breast = test system: BT-549 breast

Compound: COc1cc2oc(-c3cccc(C(=O)Nc4ccc(Cl)cc4)c3)cc(=O)c2c(OCCN)c1OC
- GI50 (ACHN renal): 10.6 µM
- TGI (ACHN renal): 22.4 µM
- GI50 (MALME-3M melanoma): 1.8 µM
- TGI (MALME-3M melanoma): 3.35 µM
- GI50 (NCI/ADR-RES ovarian): 13.6 µM
- TGI (NCI/ADR-RES ovarian): 30.9 µM
- GI50 (HOP-62 NSCLC): 1.82 µM
- TGI (HOP-62 NSCLC): 4.19 µM
- GI50 (SN12C renal): 6.12 µM
- TGI (SN12C renal): 19 µM
- GI50 (U251 CNS): 1.79 µM
- TGI (U251 CNS): 3.27 µM
- GI50 (SNB-75 CNS): 10.1 µM
- TGI (SNB-75 CNS): 24.1 µM
- GI50 (MDA-MB-231 breast): 2.63 µM
- TGI (MDA-MB-231 breast): 7.92 µM
- GI50 (UO-31 renal): 13 µM
- TGI (UO-31 renal): 25.7 µM
- GI50 (COLO 205 colon): 3.03 µM
- TGI (COLO 205 colon): 12.6 µM
- GI50 (HL-60(TB) leukemia): 2.38 µM
- TGI (HL-60(TB) leukemia): 5.9 µM
- GI50 (HCC-2998 colon): 2.37 µM
- TGI (HCC-2998 colon): 6.58 µM
- GI50 (T-47D breast): 3.74 µM
- TGI (T-47D breast): 23.4 µM
- GI50 (M14 melanoma): 2.02 µM
- TGI (M14 melanoma): 4 µM
- GI50 (SW-620 colon): 1.85 µM
- TGI (SW-620 colon): 3.46 µM
- GI50 (NCI-H23 lung): 6.22 µM
- TGI (NCI-H23 lung): 19 µM
- GI50 (SF-295 CNS): 1.8 µM
- TGI (SF-295 CNS): 3.69 µM
- GI50 (CAKI-1 renal): 11.2 µM
- TGI (CAKI-1 renal): 23.6 µM
- GI50 (EKVX NSCLC): 5.66 µM
- TGI (EKVX NSCLC): 18.6 µM
- GI50 (OVCAR-3 ovarian): 3.77 µM
- TGI (OVCAR-3 ovarian): 11.7 µM
- GI50 (LOX IMVI melanoma): 1.48 µM
- TGI (LOX IMVI melanoma): 2.8 µM
- GI50 (NCI-H460 lung): 3.17 µM
- TGI (NCI-H460 lung): 10.5 µM
- GI50 (786-0 renal): 2.04 µM
- TGI (786-0 renal): 4.14 µM
- GI50 (RXF 393 renal): 3.23 µM
- TGI (RXF 393 renal): 12.7 µM
- GI50 (NCI-H522 lung): 4.24 µM
- TGI (NCI-H522 lung): 19.8 µM
- GI50 (MCF7 breast): 1.66 µM
- TGI (MCF7 breast): 3.14 µM
- GI50 (A498 renal): 20.7 µM
- TGI (A498 renal): 40.4 µM
- GI50 (RPMI-8226 leukemia): 2.3 µM
- TGI (RPMI-8226 leukemia): 5.5 µM
- GI50 (OVCAR-8 ovarian): 4.09 µM
- TGI (OVCAR-8 ovarian): 19.4 µM
- GI50 (HCT-116 colon): 2.39 µM
- TGI (HCT-116 colon): 5.84 µM
- GI50 (HCT-15 colon): 2.82 µM
- TGI (HCT-15 colon): 8.51 µM
- GI50 (PC-3 prostate): 2.89 µM
- TGI (PC-3 prostate): 19.8 µM
- GI50 (OVCAR-4 ovarian): 4.38 µM
- TGI (OVCAR-4 ovarian): 16.8 µM
- GI50 (SF-539 CNS): 3.13 µM
- TGI (SF-539 CNS): 10.2 µM
- GI50 (NCI-H226 lung): 13.4 µM
- TGI (NCI-H226 lung): 30.3 µM
- GI50 (TK-10 renal): 7.19 µM
- TGI (TK-10 renal): 21.8 µM
- GI50 (SK-OV-3 ovarian): 11.8 µM
- TGI (SK-OV-3 ovarian): 31.9 µM
- GI50 (OVCAR-5 ovarian): 5.14 µM
- TGI (OVCAR-5 ovarian): 18 µM
- GI50 (MDA-MB-435): 1.82 µM
- TGI (MDA-MB-435): 3.65 µM
- GI50 (SK-MEL-5 melanoma): 1.72 µM
- TGI (SK-MEL-5 melanoma): 3.33 µM
- GI50 (UACC-257 melanoma): 1.73 µM
- TGI (UACC-257 melanoma): 3.41 µM
- GI50 (KM12 colon): 6.84 µM
- TGI (KM12 colon): 23.9 µM
- GI50 (HOP-92 NSCLC): 2.09 µM
- TGI (HOP-92 NSCLC): 16.5 µM
- GI50 (CCRF-CEM leukemia): 2.16 µM
- TGI (CCRF-CEM leukemia): 4.84 µM
- GI50 (UACC-62 melanoma): 9.27 µM
- TGI (UACC-62 melanoma): 22 µM
- GI50 (SNB-19 CNS): 4.02 µM
- TGI (SNB-19 CNS): 13.9 µM
- GI50 (SF-268 CNS): 11.8 µM
- TGI (SF-268 CNS): 29.7 µM
- GI50 (SK-MEL-2 melanoma): 4.02 µM
- TGI (SK-MEL-2 melanoma): 16.2 µM
- GI50 (SK-MEL-28 melanoma): 1.64 µM
- TGI (SK-MEL-28 melanoma): 3.03 µM
- GI50 (MDA-MB-468 breast): 1.52 µM
- TGI (MDA-MB-468 breast): 3.03 µM
- GI50 (IGROV1 ovarian): 4.18 µM
- TGI (IGROV1 ovarian): 18.1 µM
- GI50 (DU-145 prostate): 5.98 µM
- TGI (DU-145 prostate): 18.3 µM
- GI50 (HS 578T breast): 5.21 µM
- TGI (HS 578T breast): 25.3 µM
- GI50 (A549 NSCLC): 4.06 µM
- TGI (A549 NSCLC): 20.7 µM
- GI50 (HT29 colon): 2.28 µM
- TGI (HT29 colon): 5.62 µM
- GI50 (BT-549 breast): 6.3 µM
- TGI (BT-549 breast): 25.7 µM
